Experimental data taken from US7858348B2, “N-acetyl-(R,S)-beta-amino acid acylase gene” (Ajinomoto Co., Inc., priority 2006, dated 2010).

What was measured:
Assay type in all cases: biochemical
[1] = tested on: N-acetyl-(R)-β-amino acid acylase derived from Burkholderia sp. AJ110349 (JM109/ptrp4_3BR cell-free extract); experiment: Substrate specificity and optical selectivity with cell-free extract of JM109/ptrp4_3BR; conditions: for Concentration of acetic acid detected: JM109/ptrp4_3BR 50 mU cell-free extract, 37° C.; for optical selectivity of β-amino acid produced (ee): after reacting for 24 hours; for optical selectivity of β-amino acid produced (ee) / β-amino acid enantiomer detected in the reaction solution: chiral HPLC; for β-amino acid enantiomer detected in the reaction solution: 24 hours (10 minutes for the 3,4-(—O—CH2—O—) substrate)
Protocol: (§1) An Astec Chirobiotec T (0.46 cm in diameter, 25 cm) column was employed. A 90 percent MeOH mobile phase was employed. The temperature was 40° C. and the flow rate was 0.4 mL/minute. Optical selectivity was determined based on comparison with various standard (R) and (S) standard products under UV detection conditions of 205 nm.
(§2) The column employed was comprised of an Inertsil ODS3 (0.46 cm in diameter, 5 cm) made by GL Science and a Chiralpak WH (0.46 cm in diameter, 25 cm) made by Daisel Chemical Industries, arranged consecutively in that order. The mobile phase was 1 mM CuSO4, 10 percent MeOH. The temperature was 50° C. and the flow rate was 1.0 mL/minute. Detection was conducted with a UV detector at 210 nm and optical selectivity was determined by comparison with standard (R) and (S) products.
(§3) JM109/ptrp4—3BR, JM109/pSFN—2BS, and JM109/pSFN—1VR were precultured for 16 hours at 37° C. in LB medium containing 100 mg/L of ampicillin. 1 mL quantity of the cultured bacterial cells was transplanted to 50 mL of TB medium containing 100 mg/L of ampicillin and cultured for 16 hours at 30° C. The bacterial cells obtained were centrifugally separated to concentrate the bacteria cells. The bacterial cells were washed with 50 mM Tris buffer solution (pH 7.6) and the same buffer solution was used to prepare a bacterial cell suspension. Ultrasonic rupturing was employed to rupture the bacterial cells. A supernatant solution obtained by centrifugal separation (15,000 g, 10 minutes, 4° C.) was employed as a cell-free extract, and substrate specificity for the various N-acetyl-(R,S)-β-amino acids described above in Embodiments 2-1 to 9 was examined.
(§4) After adjusting the enzymes by the above methods, their activity was measured. Activity producing 1 μmol of β-Phe per minute from N-acetyl-(R,S)-β-Phe was denoted as 1 U. In the various examination of substrate specificity, 50 mU cell-free extracts were employed. As a negative control, instead of the cell-free medium prepared as set forth above, a 50 mM Tris buffer solution (pH 7.6) that had been reacted with each of the substrates was employed as an “Enzyme-” test zone, and instead of the individual substrates, 50 mM Tris buffer solution (pH 7.6) that had been reacted with each of the cell-free extracts was employed as a “Substrate-” test zone.
(§5) 50 mM Tris-HCl (pH 7.6) and 0.2 percent of various N-acetyl-(R,S)-β-amino acids were reacted at 37° C. for 1 hour or 24 hours, and then processed for 10 minutes at 96° C. to stop the reactions. The quantity of acetic acid produced by the decomposition of acetyl groups was determined by the protocol of an acetic acid kit (Roche).
(§6) After reacting for 24 hours, the samples were analyzed with various chiral resolution columns to determine optical selectivity.
(§7) A 300 μL quantity of culture solution was washed with 50 mM Tris-HCl (pH 7.6), suspended in 300 μL of 50 mM Tris-HCl (pH 7.6), and subjected to ultrasonic rupturing to rupture the bacteria. A supernatant solution obtained by centrifugal separation (15,000 g, 10 minutes, 4° C.) was employed as cell-free extract in the reaction.
(§8) 50 mM Tris-HCl (pH 7.6) and 0.2 percent N-acetyl-(R,S)-3,4-(—O—CH2—O—)-β-phenylalanine were reacted for 10 minutes at 37° C. When 3,4-(—O—CH2—O—)-β-phenylalanine was quantized under the separation conditions of N-acetyl-β-Phe and β-Phe, the activity per mL of cell-free extract was 0.2 U for JM109/ptrp4—3BR, 3.9 U for JM109/pSFN—2BS, and 27.8 U for JM109/pSFN—1VR.
(§9) Various enzymes were prepared from the same bacterial cells and by the same methods as in 12-1, and 50 mU cell-free extracts were employed in the reaction. 50 mM Tris-HCl (pH 7.6) and 1 percent N-acetyl-(R,S)-β-3-Pyr-Ala were reacted for 1 hour at 37° C., after which the reaction was stopped by treatment at 70° C. for 10 minutes. The quantity of acetic acid generated by the decomposition of acetyl groups was determined by the protocol of an acetic acid kit (Roche).

[2] = tested on: N-acetyl-(S)-β-amino acid acylase derived from Burkholderia sp. AJ110349 (JM109/pSFN_2BS cell-free extract); experiment: Substrate specificity and optical selectivity with cell-free extract of JM109/pSFN_2BS; conditions: for optical selectivity of β-amino acid produced (ee) / β-amino acid enantiomer detected in the reaction solution: JM109/pSFN-2BS, chiral HPLC; for optical selectivity of β-amino acid produced (ee): after reacting for 24 hours; for β-amino acid enantiomer detected in the reaction solution: 24 hours (10 minutes for the 3,4-(—O—CH2—O—) substrate); for Concentration of acetic acid detected: JM109/pSFN_2BS 50 mU cell-free extract, 37° C.
Protocol: as §1, §2, §3, §4, §5, §6, §7, §8, §9

[3] = tested on: N-acetyl-(R)-β-amino acid acylase derived from Variovorax sp. AJ110348 (JM109/pSFN_1VR cell-free extract); experiment: Substrate specificity and optical selectivity with cell-free extract of JM109/pSFN_1VR; conditions: for Concentration of acetic acid detected: JM109/pSFN_1VR 50 mU cell-free extract, 37° C.; for optical selectivity of β-amino acid produced (ee): after reacting for 24 hours; for optical selectivity of β-amino acid produced (ee) / β-amino acid enantiomer detected in the reaction solution: chiral HPLC; for β-amino acid enantiomer detected in the reaction solution: 24 hours (10 minutes for the 3,4-(—O—CH2—O—) substrate)
Protocol: as §1, §2, §3, §4, §5, §6, §7, §8, §9

[4] = 0.2 percent substrate, 24 hours

SMILES | Concentration of acetic acid detected ([1]; 0.2 percent substrate, 1 hour) [mM] | Concentration of acetic acid detected [1, 4] [mM] | optical selectivity of β-amino acid produced (ee) ([1]; JM109/ptrp4—3BR) [% ee] | β-amino acid enantiomer detected in the reaction solution ([1]; JM109/ptrp4—3BR) | optical selectivity of β-amino acid produced (ee) [2] [% ee] | β-amino acid enantiomer detected in the reaction solution [2] | Concentration of acetic acid detected ([2]; 0.2 percent substrate, 1 hour) [mM] | Concentration of acetic acid detected [2, 4] [mM] | Concentration of acetic acid detected ([3]; 0.2 percent substrate, 1 hour) [mM] | Concentration of acetic acid detected [3, 4] [mM] | optical selectivity of β-amino acid produced (ee) ([3]; JM109/pSFN—1VR) [% ee] | β-amino acid enantiomer detected in the reaction solution ([3]; JM109/pSFN—1VR) | acetic acid detected ([1]; JM109/ptrp4—3BR 50 mU cell-free extract, 1 percent substrate, 1 hour at 37° C.) [mM] | acetic acid detected ([2]; JM109/pSFN—2BS 50 mU cell-free extract, 1 percent substrate, 1 hour at 37° C.) [mM] | acetic acid detected ([3]; JM109/pSFN—1VR 50 mU cell-free extract, 1 percent substrate, 1 hour at 37° C.) [mM] | activity per mL of cell-free extract ([1]; JM109/ptrp4—3BR, 0.2 percent substrate, 10 minutes at 37° C.) [U] | activity per mL of cell-free extract ([2]; JM109/pSFN—2BS, 0.2 percent substrate, 10 minutes at 37° C.) [U] | activity per mL of cell-free extract ([3]; JM109/pSFN—1VR, 0.2 percent substrate, 10 minutes at 37° C.) [U]
CC(=O)NC(CC(=O)O)C(C)C (racemic) [N-Ac-β-Leu, N-acetyl-(R,S)-β-Leu] | 0.2 | 5.6 | > 99 | (R)-β-Leu was detected | > 99 | (S)-β-Leu was detected | 1.6 | 6.2 | 0.0 | 1.0 | > 99 | (R)-β-Leu was detected |  |  |  |  |  | 
CC(=O)NC(CC(=O)O)c1cccnc1 (racemic) [N-acetyl-(R,S)-β-3-Pyr-Ala] |  |  |  |  |  |  |  |  |  |  |  |  | 3.5 | 8.4 | 0.8 |  |  | 
CC(=O)NC(CC(=O)O)c1ccccc1 (racemic) [N-Ac-β-Phe, N-acetyl-(R,S)-β-Phe] | 5.0 |  |  |  |  |  | 5.3 |  | 5.2 |  |  |  |  |  |  |  |  | 
CC(=O)NC(CC(=O)O)Cc1ccccc1 (racemic) [N-Ac-β-homoPhe, N-acetyl-(R,S)-β-homoPhe] | 1.6 | 3.7 | 98 | (S)-β-homoPhe was detected | > 99 | (R)-β-homoPhe was detected | 0.5 | 4.0 | 0.1 | 2.6 | > 99 | (S)-β-homoPhe was detected |  |  |  |  |  | 
CC(=O)NC(CC(=O)O)c1ccc(O)cc1 (racemic) [N-Ac-β-Tyr, N-acetyl-(R,S)-β-Tyr] | 4.5 | 4.9 | 61 | (R)-β-Tyr was detected | > 99 | (S)-β-Tyr was detected | 5.2 | 5.2 | 5.1 | 4.6 | > 99 | (R)-β-Tyr was detected |  |  |  |  |  | 
CC(=O)NC(CC(=O)O)c1ccc2c(c1)OCO2 (racemic) [N-acetyl-(R,S)-3,4-(—O—CH2—O—)-β-phenylalanine] |  |  |  | (R)-3,4-(—O—CH2—O—)-β-phenylalanine was detected |  | (S)-3,4-(—O—CH2—O—)-β-phenylalanine was detected |  |  |  |  |  | (R)-3,4-(—O—CH2—O—)-β-phenylalanine was detected |  |  |  | 0.2 | 3.9 | 27.8
CC(=O)NC(C)CC(=O)O (racemic) [N-Ac-β-Aba, N-acetyl-(R,S)-β-aminobutyric acid] | 0.1 | 0.6 |  |  |  |  | 0.1 | 0.3 | 0.0 | 0.1 |  |  |  |  |  |  |  | 
CC(=O)NC(CC(=O)O)CC(C)C (racemic) [N-Ac-β-homoLeu, N-acetyl-(R,S)-β-homoLeu] | 3.0 | 7.5 | 69 | (S)-β-homoLeu was detected | > 99 | (R)-β-homoLeu was detected | 1.2 | 5.4 | 0.0 | 0.6 | > 99 | (S)-β-homoLeu was detected |  |  |  |  |  | 
CC(=O)NC(CC(=O)O)c1ccc(F)cc1 (racemic) [N-Ac-β-4-F-Phe, N-acetyl-(R,S)-4-fluoro-β-Phe] | 4.6 | 5.4 | 94 | (R)-4-fluoro-β-Phe was detected | > 99 | (S)-4-fluoro-β-Phe was detected | 5.2 | 5.1 | 4.6 | 4.7 | > 99 | (R)-4-fluoro-β-Phe was detected |  |  |  |  |  | 
